The text below walks through data of paper PMC10794144, “A novel antibiotic class targeting the lipopolysaccharide transporter” (Nature, 2024).

Like-named read-outs stand apart in the source and are kept apart here. Marks after values point to notes of the source that are not given here.

The target in one series is CYP3A4 (Homo sapiens, UniProt P08684). The series can be described thus: CYP inhibition. The class given is in vitro ADME.
In another series the target is T1, Phosphodiesterase 4D2 (Homo sapiens, UniProt Q08499).
T1 construct: purchased Eurofins CEREP SA
T1 sequence (Q08499 303-809 limits assumed): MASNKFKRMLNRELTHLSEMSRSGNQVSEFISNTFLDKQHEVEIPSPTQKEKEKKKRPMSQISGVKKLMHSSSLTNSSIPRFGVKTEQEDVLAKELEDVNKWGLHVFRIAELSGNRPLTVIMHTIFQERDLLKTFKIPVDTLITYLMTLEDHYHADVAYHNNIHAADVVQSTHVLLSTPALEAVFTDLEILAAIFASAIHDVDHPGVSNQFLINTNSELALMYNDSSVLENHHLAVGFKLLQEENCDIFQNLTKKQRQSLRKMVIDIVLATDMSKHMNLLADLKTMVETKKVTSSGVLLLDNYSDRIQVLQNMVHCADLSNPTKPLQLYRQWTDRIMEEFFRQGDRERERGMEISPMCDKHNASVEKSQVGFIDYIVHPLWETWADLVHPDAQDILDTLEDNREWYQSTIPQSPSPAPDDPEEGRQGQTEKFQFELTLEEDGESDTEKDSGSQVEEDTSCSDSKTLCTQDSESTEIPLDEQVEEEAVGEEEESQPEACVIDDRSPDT
The series can be described thus: Off-target screening (CEREP). Format: biochemical. The conditions noted are these: read-out: percent inhibition. Here is the method:
(§1) Supplementary Table 1 │ Off-target activity screening f or MCP compou nds […]
(§2) The assays given in the table above were conducted at Eurofins CEREP S A (Celle-Lévescault, France) and were run as single point measurements in duplicates in the presence of 10 µ M of the test compound and reported as percent inhibition of the radioligand signal or control enzymatic activity. n.d., not

The next series has as its target T2, Matrix metalloprotease-9 (Homo sapiens, UniProt P14780).
T2 construct: purchased Eurofins CEREP SA
The series can be described thus: Off-target screening (CEREP). Format: biochemical. To be noted: read-out: percent inhibition. Here is the method: as §1, §2

Another series deals with T3, Abl kinase (Homo sapiens, UniProt P00519).
T3 construct: purchased Eurofins CEREP SA
T3 sequence (P00519 whole entry): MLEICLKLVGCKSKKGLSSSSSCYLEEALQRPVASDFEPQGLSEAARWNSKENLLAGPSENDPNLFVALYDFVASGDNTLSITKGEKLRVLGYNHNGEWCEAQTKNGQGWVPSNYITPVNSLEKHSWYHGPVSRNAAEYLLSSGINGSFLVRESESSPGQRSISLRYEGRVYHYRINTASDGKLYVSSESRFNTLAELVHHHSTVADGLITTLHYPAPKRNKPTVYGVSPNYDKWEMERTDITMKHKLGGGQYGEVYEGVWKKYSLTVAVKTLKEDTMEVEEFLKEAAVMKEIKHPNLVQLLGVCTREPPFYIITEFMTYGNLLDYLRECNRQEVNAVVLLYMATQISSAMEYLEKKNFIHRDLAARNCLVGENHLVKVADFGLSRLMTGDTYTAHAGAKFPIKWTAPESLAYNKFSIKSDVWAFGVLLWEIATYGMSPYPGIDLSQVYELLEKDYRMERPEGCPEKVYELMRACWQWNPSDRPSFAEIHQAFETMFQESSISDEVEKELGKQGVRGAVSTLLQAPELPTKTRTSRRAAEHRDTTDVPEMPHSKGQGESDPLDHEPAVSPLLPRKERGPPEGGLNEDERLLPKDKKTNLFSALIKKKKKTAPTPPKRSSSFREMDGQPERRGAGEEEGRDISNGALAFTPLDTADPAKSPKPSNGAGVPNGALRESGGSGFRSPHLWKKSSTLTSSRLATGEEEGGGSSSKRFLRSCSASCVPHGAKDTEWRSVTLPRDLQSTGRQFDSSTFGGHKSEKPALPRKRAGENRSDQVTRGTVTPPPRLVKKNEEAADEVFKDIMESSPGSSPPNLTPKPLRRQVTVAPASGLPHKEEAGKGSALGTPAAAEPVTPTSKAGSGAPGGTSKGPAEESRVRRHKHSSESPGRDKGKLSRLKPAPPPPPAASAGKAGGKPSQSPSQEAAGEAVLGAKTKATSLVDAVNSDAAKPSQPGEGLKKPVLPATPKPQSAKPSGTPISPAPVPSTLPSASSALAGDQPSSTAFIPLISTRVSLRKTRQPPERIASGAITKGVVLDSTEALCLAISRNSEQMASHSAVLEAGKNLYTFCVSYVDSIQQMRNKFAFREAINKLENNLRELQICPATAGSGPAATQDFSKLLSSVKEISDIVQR
Briefly: Off-target screening (CEREP). Format: biochemical. To be noted: read-out: percent inhibition. Here is the method:
as §1, §2

For a further series, the target named is T4, CDK2 (Homo sapiens, UniProt P24941).
T4 construct: purchased Eurofins CEREP SA
The series can be described thus: Off-target screening (CEREP). To be noted: read-out: percent inhibition. The class given is biochemical. Here is the method:
as §1, §2

In another series the test system is HIV-1 protease. The series can be described thus: Off-target screening (CEREP). The conditions noted are these: 10 µM, duplicates. The class given is biochemical. Here is the method: as §1, §2
Another series concerns the target T5, Phosphodiesterase 3B (Homo sapiens, UniProt Q13370).
T5 construct: purchased Eurofins CEREP SA
Briefly: Off-target screening (CEREP). The class given is biochemical. To be noted: read-out: percent inhibition. Here is the method:
as §1, §2

For another series, the target named is T6, GSK-3A (Homo sapiens, UniProt P49840).
T6 construct: purchased Eurofins CEREP SA
T6 sequence (P49840 whole entry): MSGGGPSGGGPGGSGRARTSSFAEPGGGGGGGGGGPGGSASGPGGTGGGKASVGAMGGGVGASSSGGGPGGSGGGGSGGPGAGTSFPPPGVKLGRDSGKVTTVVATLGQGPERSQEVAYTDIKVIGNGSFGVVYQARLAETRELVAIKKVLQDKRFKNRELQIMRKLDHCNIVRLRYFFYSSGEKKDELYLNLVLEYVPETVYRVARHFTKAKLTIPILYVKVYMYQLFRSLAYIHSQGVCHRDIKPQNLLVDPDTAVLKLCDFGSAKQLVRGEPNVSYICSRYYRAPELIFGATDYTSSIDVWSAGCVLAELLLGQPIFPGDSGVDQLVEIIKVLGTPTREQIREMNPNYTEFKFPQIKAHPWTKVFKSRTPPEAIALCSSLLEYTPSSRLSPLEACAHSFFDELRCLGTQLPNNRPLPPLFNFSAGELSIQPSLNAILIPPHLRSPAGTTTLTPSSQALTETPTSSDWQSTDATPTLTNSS
Briefly: Off-target screening (CEREP). Format: biochemical. To be noted: read-out: percent inhibition. The protocol: as §1, §2

The target in another series is T7, Cyclooxygenase 2 (Homo sapiens, UniProt P35354).
T7 construct: purchased Eurofins CEREP SA
T7 sequence (P35354 18-604): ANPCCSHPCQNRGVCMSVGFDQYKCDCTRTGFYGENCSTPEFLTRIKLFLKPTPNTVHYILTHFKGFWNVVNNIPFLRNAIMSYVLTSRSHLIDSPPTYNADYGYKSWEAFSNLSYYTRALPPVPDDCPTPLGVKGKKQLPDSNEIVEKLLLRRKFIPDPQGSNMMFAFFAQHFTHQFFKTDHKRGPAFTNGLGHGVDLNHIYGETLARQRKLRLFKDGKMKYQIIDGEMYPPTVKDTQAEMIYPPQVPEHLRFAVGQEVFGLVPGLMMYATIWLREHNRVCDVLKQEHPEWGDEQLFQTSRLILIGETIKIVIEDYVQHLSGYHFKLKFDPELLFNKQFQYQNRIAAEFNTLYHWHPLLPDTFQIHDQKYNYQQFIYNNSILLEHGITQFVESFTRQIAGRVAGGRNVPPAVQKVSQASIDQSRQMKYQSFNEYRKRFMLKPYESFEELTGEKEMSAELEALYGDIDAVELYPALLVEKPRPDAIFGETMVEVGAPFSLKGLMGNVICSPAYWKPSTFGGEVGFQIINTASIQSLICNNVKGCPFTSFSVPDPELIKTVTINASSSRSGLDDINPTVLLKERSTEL
Briefly: Off-target screening (CEREP). The class given is biochemical. The conditions noted are these: read-out: percent inhibition. Here is the method:
as §1, §2

A further series has as its target T8, Monoamine oxidase-A (Homo sapiens, UniProt P21397).
T8 construct: purchased Eurofins CEREP SA
T8 sequence (P21397 1-527): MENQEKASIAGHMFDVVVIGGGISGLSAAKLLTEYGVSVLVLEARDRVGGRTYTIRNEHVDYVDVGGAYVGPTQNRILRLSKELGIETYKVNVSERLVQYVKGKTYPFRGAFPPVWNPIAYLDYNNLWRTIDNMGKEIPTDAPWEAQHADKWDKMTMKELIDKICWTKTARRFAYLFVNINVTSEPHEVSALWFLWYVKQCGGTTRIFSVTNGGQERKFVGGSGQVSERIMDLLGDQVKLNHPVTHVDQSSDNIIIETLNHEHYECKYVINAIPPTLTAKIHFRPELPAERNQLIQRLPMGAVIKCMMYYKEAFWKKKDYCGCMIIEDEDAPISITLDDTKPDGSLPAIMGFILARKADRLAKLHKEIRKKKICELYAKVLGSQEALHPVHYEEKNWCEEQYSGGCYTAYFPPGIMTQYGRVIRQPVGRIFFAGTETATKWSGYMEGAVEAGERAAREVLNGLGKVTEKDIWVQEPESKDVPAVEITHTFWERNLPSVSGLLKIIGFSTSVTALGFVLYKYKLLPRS
The series can be described thus: Off-target screening (CEREP). Format: biochemical. The conditions noted are these: read-out: percent inhibition. Here is the method:
as §1, §2

In the next series the target is T9, Acetylcholinesterase (Homo sapiens, UniProt P22303).
T9 construct: purchased Eurofins CEREP SA
T9 sequence (P22303 32-614): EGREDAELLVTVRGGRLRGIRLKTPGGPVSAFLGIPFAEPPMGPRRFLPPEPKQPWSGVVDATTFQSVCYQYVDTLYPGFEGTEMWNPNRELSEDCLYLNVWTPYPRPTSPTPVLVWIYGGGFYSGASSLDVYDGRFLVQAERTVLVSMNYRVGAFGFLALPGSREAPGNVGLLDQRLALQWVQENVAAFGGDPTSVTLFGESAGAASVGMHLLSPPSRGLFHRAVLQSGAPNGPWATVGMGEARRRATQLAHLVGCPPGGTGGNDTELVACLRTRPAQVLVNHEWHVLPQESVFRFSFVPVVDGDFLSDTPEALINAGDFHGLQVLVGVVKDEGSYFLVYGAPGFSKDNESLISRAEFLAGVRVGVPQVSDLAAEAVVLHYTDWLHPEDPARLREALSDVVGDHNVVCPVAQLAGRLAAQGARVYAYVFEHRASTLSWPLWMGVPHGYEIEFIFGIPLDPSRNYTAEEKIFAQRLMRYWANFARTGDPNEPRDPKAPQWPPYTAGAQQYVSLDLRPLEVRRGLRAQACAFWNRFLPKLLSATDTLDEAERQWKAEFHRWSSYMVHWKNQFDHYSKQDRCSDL
The series can be described thus: Off-target screening (CEREP). The class given is biochemical. The conditions noted are these: read-out: percent inhibition. The protocol:
as §1, §2

The next series has as its target T10, ZAP70 kinase (Homo sapiens, UniProt P43403).
T10 construct: purchased Eurofins CEREP SA
T10 sequence (P43403 1-619): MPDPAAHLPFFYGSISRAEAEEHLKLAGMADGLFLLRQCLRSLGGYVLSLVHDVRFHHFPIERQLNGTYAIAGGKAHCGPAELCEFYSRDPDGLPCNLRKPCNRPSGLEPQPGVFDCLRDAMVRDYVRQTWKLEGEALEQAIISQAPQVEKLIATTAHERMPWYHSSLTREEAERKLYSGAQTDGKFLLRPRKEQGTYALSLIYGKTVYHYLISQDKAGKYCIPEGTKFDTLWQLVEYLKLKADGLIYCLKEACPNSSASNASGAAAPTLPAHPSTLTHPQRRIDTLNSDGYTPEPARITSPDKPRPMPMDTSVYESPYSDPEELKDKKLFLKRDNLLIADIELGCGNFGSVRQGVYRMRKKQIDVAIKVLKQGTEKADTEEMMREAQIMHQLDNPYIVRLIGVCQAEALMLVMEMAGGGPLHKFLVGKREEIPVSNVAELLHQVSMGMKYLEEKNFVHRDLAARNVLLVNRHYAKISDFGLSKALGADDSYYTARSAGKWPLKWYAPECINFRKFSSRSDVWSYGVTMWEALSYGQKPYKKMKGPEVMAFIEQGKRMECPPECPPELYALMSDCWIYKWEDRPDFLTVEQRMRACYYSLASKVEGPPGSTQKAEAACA
The series can be described thus: Off-target screening (CEREP). Format: biochemical. To be noted: read-out: percent inhibition. The protocol:
as §1, §2

The test system of another series is E. coli ATCC 25922. Briefly: microbe, parasite or virus in culture. The protocol:
MIC determinations were performed using the broth microdilution method and in line with CLSI guidelines M07 and M100 (refs. [37],[38]). Bacterial inocula were prepared by diluting a 0.5 McFarland suspension in CAMHB or lysogeny broth (LB) specifically for A. baylyi isolates. […] MIC values of all of the tested antibiotics were read as the lowest compound concentration inhibiting bacterial growth by naked eye or beyond which the OD600 ceased to decrease.

Another series concerns panel of 50 off-targets. Briefly: Off-target activity screening, number of hits in panel of 50. The class given is binding. To be noted: > 30% inhibition at 10 μM.
Setting [1] is: CAMHB, mode of at least three replicates (RO7036668 one replicate).

CYP3A4, sequence (P08684 whole entry): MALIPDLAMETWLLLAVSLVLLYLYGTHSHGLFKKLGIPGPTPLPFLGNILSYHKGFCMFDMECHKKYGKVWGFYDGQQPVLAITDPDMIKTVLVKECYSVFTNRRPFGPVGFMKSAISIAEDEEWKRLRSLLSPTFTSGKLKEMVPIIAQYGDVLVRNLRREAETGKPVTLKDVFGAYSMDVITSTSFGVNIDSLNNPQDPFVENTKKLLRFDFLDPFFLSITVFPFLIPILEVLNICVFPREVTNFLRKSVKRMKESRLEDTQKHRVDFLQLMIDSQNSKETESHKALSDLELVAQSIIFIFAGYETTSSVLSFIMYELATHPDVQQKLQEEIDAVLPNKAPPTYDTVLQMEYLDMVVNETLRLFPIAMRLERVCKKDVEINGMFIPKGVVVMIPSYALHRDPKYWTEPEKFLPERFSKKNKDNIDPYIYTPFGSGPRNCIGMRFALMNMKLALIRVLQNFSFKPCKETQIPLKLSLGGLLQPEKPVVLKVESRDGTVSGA
T5 sequence (Q13370 whole entry): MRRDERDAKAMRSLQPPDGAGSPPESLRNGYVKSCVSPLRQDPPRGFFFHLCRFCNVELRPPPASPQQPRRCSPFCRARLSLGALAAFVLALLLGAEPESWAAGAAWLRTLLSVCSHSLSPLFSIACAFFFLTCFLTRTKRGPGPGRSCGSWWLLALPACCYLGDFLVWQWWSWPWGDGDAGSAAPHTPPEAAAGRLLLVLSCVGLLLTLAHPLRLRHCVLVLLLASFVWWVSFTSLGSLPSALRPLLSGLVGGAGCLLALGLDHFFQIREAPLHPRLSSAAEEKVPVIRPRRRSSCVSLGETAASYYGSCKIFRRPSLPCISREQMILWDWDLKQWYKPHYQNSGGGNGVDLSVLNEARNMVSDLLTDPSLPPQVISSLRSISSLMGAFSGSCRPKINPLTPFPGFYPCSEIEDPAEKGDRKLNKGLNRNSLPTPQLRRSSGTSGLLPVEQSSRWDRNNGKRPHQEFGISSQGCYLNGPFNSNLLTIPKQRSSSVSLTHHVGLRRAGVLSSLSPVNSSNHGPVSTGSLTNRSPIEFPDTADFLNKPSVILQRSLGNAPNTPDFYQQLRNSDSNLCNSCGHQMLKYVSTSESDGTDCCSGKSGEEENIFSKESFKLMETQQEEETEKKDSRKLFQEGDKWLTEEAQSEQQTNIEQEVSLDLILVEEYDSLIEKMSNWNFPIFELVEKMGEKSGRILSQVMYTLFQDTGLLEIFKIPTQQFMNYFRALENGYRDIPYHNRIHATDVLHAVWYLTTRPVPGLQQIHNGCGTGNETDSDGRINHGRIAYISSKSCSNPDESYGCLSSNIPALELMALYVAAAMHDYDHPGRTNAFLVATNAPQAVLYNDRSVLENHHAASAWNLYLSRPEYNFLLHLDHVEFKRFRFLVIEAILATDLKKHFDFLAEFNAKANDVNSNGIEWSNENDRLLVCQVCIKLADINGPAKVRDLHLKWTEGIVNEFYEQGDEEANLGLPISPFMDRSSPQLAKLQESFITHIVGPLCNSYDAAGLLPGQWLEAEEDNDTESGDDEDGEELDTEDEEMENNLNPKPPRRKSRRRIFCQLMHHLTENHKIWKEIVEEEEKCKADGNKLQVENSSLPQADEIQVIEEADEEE
T2 sequence (P14780 94-707): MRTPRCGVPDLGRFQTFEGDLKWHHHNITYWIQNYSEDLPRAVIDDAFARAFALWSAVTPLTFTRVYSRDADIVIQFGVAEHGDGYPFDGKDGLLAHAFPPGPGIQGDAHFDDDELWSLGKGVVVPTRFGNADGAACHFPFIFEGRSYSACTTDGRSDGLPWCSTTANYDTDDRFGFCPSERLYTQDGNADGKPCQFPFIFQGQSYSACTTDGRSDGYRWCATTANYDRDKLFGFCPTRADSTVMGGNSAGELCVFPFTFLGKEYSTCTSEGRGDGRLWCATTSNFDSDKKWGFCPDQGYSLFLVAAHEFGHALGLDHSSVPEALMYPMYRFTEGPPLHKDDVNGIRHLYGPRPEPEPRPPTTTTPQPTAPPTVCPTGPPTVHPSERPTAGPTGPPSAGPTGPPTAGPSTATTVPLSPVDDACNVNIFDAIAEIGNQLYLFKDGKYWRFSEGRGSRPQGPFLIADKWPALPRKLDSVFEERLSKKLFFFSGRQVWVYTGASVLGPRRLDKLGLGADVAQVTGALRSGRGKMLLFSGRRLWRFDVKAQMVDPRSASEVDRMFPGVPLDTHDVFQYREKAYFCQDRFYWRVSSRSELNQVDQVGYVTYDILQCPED

Consider `CN1C(=O)[C@H](CCCCN)NC(=O)[C@H](CCCN)NCc2cccnc2Sc2c(Cl)ccc(Cl)c2CNC(=O)[C@@H]1Cc1c[nH]c2ccccc12` [RO7075573], for which the “CYP inh. (3A4)” value at CYP3A4 amounted to 16 µM. Also, the inhibition at 10 µM at Phosphodiesterase 4D2 was 0%; on Matrix metalloprotease-9, -31%; on Abl kinase, -85%; on CDK2 it was -5%; at Phosphodiesterase 3B it was -3%; at GSK-3A it was -1%. In addition, the inhibition at 10 µM was -46% at Cyclooxygenase 2, 3% on Monoamine oxidase-A, 4% on Acetylcholinesterase and -47% at ZAP70 kinase. Also, the percent inhibition with HIV-1 protease is -4%. Besides, the MIC is greater than 64 µg/mL in the series with E. coli ATCC 25922 (setting [1]) and greater than 64 µg/mL in the series with E. coli ATCC 25922 (Escherichia coli, ATCC25922). Further, the “MIC 100%” value with E. coli ATCC 25922 (Study LGC281440), against E. coli ATCC 25922 (Study LGC282160), against E. coli ATCC 25922 (Study LGC284879), in the series with E. coli ATCC 25922 (Study LGC285582), against E. coli ATCC 25922 (Study LGC286210) and in the series on E. coli ATCC 25922 (Study LGC293598) was greater than 64 µg/mL each time. Besides, the “MIC 100%” value in the series with E. coli ATCC 25922 (Study LGC294355), with E. coli ATCC 25922 (Study LGC295147), in the series on E. coli ATCC 25922 (Study LGC296813), against E. coli ATCC 25922 (Study LGC299544), against E. coli ATCC 25922 (Study LGC301026) and against E. coli ATCC 25922 (Study LGC308175) was greater than 64 µg/mL throughout. The “MIC 100%” value against E. coli ATCC 25922 (Study ROC010) and against E. coli ATCC 25922 (Study ROC012) was greater than 64 µg/mL throughout. The Off-target hits with panel of 50 off-targets was 1 #.
Regarding `CN1C(=O)[C@H](CCCN)NC(=O)[C@H](CCCN)NCc2ccccc2Sc2ccccc2CNC(=O)[C@@H]1Cc1c[nH]c2ccccc12` [RO7036668], the “CYP inh. (3A4)” value at CYP3A4 came out at 18 µM. In addition, the inhibition at 10 µM on Matrix metalloprotease-9 (10 µM, duplicates) was 6%; at CDK2 (10 µM, duplicates), 9%; at Phosphodiesterase 3B (10 µM, duplicates) it was 17%; on GSK-3A (10 µM, duplicates) it was -12%; on Cyclooxygenase 2 (10 µM, duplicates), 4%; on Monoamine oxidase-A (10 µM, duplicates), -2%. The inhibition at 10 µM is 9% at Acetylcholinesterase (10 µM, duplicates) and 2% on ZAP70 kinase (10 µM, duplicates). Also, the MIC in the series with E. coli ATCC 25922 (setting [1]) was greater than 64 µg/mL; in the series with E. coli ATCC 25922 (Escherichia coli, ATCC25922), greater than 64 µg/mL.
